In brackets after ≈: the same amount, converted by molar mass.
What was measured:
NIH3T3 = assay: Phototoxicity against BALB/c mouse 3T3 cells assessed as reduction in cell viability preincubated for 1 hr followed by 5 J/cm2 UVA sunlight irradiation for 50 mins and subsequent replacement of medium and measured after 24 hrs by neutral red uptake assay; type: cell-based; details: NIH3T3, light or radiation study
Klebsiella pneumoniae = assay: Antibacterial activity against wild type Klebsiella pneumoniae ATCC 43816 by CLSI-based broth microdilution assay; type: functional
[1] = Terminal half life in rat at 5 mg/kg, iv measured up to 24 hrs by LC-MS/MS analysis; type: ADME, organism-based; details: in vivo, read-out: beta t1/2 (converted)
Klebsiella oxytoca = assay: Antibacterial activity against Klebsiella oxytoca clinical isolates by CLSI-based broth microdilution assay; type: functional
Pseudomonas aeruginosa [2] = assay: Antibacterial activity against wild type Pseudomonas aeruginosa PAO1 K767 by CLSI-based broth microdilution assay; type: functional
Escherichia coli [3] = assay: Ratio of MIC for antibacterial activity against wild type Escherichia coli ATCC 25922 at pH 5.8 to MIC for antibacterial activity against wild type Escherichia coli ATCC 25922 at pH 7.4; type: functional
[4] = Protein binding in CD1 mouse plasma at 10 uM incubated for 4 hrs under shaking condition by LC-MS/MS analysis; type: ADME, cell-free; details: read-out: PPB (converted)
[5] = Volume of distribution at steady state in rat at 5 mg/kg, iv or 10 mg/kg, po measured up to 24 hrs by LC-MS/MS analysis; type: ADME, organism-based; details: in vivo, read-out: Vdss
[6] = Dose normalized AUC in mouse at 5 mg/kg, po measured up to 24 hrs by LC-MS/MS analysis; type: ADME, organism-based; details: in vivo
[7] = Oral bioavailability in rat at 10 mg/kg measured up to 24 hrs by LC-MS/MS analysis; type: ADME, organism-based; details: in vivo
HepG2 = assay: Cytotoxicity against human HepG2 cells assessed as reduction in cell viability after 72 hrs by Cell-titer Glo assay; type: cell-based; details: HepG2, 72 h
[8] = Tmax in mouse at 5 mg/kg, po measured up to 24 hrs by LC-MS/MS analysis; type: ADME, organism-based; details: in vivo
Escherichia coli [9] = assay: Antibacterial activity against Escherichia coli BW25113/JW0451-2 harboring AcrB deletion mutant by CLSI-based broth microdilution assay; type: functional
[10] = Intrinsic clearance in mouse liver microsomes at 1 uM in presence of NADPH and measured up to 30 mins by LC-MS/MS analysis; type: ADME, Microsome; details: read-out: CLH
DNA gyrase = DNA gyrase (Escherichia coli, UniProt P0AES4+P0AES6); assay: Inhibition of recombinant full-length C-terminal His6-tagged Escherichia coli DNA gyrase AB supercoiling activity using relaxed DNA as substrate preincubated for 30 mins followed by substrate addition and measured after 2 hrs in presence of ATP by size exclusion HPLC analysis; type: protein-complex assay
Pseudomonas aeruginosa [11] = assay: Antibacterial activity against Pseudomonas aeruginosa NB52023 harboring gyrA T83I mutant/ParC S87L mutant by CLSI-based broth microdilution assay; type: functional
[12] = Clearance in mouse at 5 mg/kg, iv or po measured up to 24 hrs by LC-MS/MS analysis; type: ADME, organism-based; details: in vivo
[13] = Terminal half life in mouse at 5 mg/kg, iv measured up to 24 hrs by LC-MS/MS analysis; type: ADME, organism-based; details: in vivo, read-out: beta t1/2 (converted)
[14] = molecular target: Voltage-gated inwardly rectifying potassium channel KCNH2 (Homo sapiens, UniProt Q12809); assay: Inhibition of human ERG expressed in CHOK1 cells measured for 10 mins by QPatch automated patch-clamp assay; type: cell-based, CHO-K1
Voltage-gated inwardly rectifying potassium channel KCNH2, sequence (Q12809 whole entry): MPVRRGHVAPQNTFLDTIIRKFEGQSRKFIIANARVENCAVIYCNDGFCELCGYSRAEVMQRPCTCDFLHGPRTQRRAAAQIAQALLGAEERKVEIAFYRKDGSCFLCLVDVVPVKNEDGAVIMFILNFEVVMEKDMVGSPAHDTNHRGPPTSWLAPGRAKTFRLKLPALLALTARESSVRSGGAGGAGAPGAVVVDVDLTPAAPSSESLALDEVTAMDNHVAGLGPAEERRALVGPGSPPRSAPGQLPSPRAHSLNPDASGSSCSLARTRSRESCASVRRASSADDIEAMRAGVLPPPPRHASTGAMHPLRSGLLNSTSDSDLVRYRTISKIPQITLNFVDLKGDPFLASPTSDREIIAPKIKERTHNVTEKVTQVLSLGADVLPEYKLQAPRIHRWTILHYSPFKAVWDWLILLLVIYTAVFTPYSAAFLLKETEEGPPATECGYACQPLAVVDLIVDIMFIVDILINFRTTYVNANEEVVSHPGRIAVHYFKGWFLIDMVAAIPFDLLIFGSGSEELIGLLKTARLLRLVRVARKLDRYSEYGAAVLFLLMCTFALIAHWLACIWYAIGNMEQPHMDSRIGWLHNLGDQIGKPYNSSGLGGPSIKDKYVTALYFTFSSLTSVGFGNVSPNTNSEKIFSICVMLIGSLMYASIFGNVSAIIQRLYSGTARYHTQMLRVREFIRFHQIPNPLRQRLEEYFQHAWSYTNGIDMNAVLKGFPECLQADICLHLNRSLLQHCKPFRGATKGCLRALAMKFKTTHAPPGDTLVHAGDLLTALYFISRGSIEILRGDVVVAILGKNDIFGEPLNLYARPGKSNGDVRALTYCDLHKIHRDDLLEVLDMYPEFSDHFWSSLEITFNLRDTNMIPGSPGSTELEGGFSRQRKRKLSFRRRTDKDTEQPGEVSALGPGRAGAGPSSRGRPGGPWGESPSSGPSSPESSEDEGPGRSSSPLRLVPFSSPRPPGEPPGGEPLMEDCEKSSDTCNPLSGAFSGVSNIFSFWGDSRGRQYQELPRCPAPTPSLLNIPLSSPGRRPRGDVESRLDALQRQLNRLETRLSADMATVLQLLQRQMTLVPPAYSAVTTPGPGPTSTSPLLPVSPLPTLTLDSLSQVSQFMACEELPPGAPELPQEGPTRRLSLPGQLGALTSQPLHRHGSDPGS

[15] = Inhibition of recombinant full-length C-terminal His6-tagged Escherichia coli DNA topoisomerase 4 subunit ParC/ParE using kinetoplast DNA as substrate preincubated for 30 mins followed by substrate addition and measured after 1 hr in presence of ATP by size exclusion chromatography
Escherichia coli [16] = assay: Bacteriostatic activity against Escherichia coli ATCC 25922 infected in mouse model of neutropenic thigh infection assessed as static dose compound administered subcutaneously 2 hrs post infection and measured after 24 hrs by serial dilution method; type: functional
[17] = Dose normalized Cmax in rat at 10 mg/kg, po measured up to 24 hrs by LC-MS/MS analysis; type: ADME, organism-based; details: in vivo
Escherichia coli [18] = assay: Antibacterial activity against Escherichia coli clinical isolates by CLSI-based broth microdilution assay; type: functional
[19] = Tmax in rat at 10 mg/kg, po measured up to 24 hrs by LC-MS/MS analysis; type: ADME, organism-based; details: in vivo
Escherichia coli [20] = assay: Antibacterial activity against wild type Escherichia coli ATCC 25922 at pH 7.4 by CLSI-based broth microdilution assay; type: functional
[21] = Dose normalized Cmax in mouse at 5 mg/kg, po measured up to 24 hrs by LC-MS/MS analysis; type: ADME, organism-based; details: in vivo
Escherichia coli [22] = assay: Antibacterial activity against wild type Escherichia coli ATCC 25922 at pH 5.8 by CLSI-based broth microdilution assay; type: functional
Morganella morganii = assay: Antibacterial activity against Morganella morganii clinical isolates by CLSI-based broth microdilution assay; type: functional
[23] = Dark toxicity in BALB/c mouse 3T3 cells assessed as reduction in cell viability incubated for 1 hr prior to 50 mins incubation under dark condition followed by replacement of medium and measured after 24 hrs by neutral red uptake assay; type: cell-based, NIH3T3; details: BALB/c 3T3 cells
[24] = Photoirradiation factor, ratio of IC50 for BALB/c mouse 3T3 cells under dark condition to IC50 for BALB/c mouse 3T3 cells under 5 J/cm2 sunlight irradiation by neutral red uptake assay; type: ADME, cell-based, NIH3T3; details: BALB/c 3T3 cells, read-out: Ratio IC50
Proteus mirabilis = assay: Antibacterial activity against Proteus mirabilis clinical isolates by CLSI-based broth microdilution assay; type: functional
[25] = Solubility of the compound in pH 7 PBS incubated for 24 hrs under gently shaking condition by UPLC/UV/CLND/MS analysis; type: physicochemical; details: PBS, pH 7
[26] = Dissociation constant, pKa of the compound by UV metric method; type: physicochemical
Escherichia coli [27] = assay: Antibacterial activity against Escherichia coli ATCC 25922 infected in mouse model of neutropenic thigh infection compound administered subcutaneously 2 hrs post infection and measured after 24 hrs by serial dilution method; type: functional
Pseudomonas aeruginosa [28] = assay: Antibacterial activity against Pseudomonas aeruginosa clinical isolates by CLSI-based broth microdilution assay; type: functional
MOLT-4 = assay: Cytotoxicity against human MOLT4 cells assessed as reduction in cell viability after 72 hrs by Cell-titer Glo assay; type: cell-based; details: MOLT-4, 72 h
[29] = Volume of distribution at steady state in mouse at 5 mg/kg, iv or po measured up to 24 hrs by LC-MS/MS analysis; type: ADME, organism-based; details: in vivo, read-out: Vdss
[30] = Efflux ratio of apparent permeability in human Caco2 cells at 10 uM after 2 hrs by LC-MS/MS analysis; type: ADME, cell-based; details: Caco-2
K562 = assay: Cytotoxicity against human K562 cells assessed as reduction in cell viability after 72 hrs by Cell-titer Glo assay; type: cell-based; details: K562, 72 h

Cc1c(N2CC3CC3(N)C2)c(F)cc2c(CN)c(F)c(=O)n(C3CC3)c12 (centres undefined)
IC50 (NIH3T3): 1.61 µM | MIC (Klebsiella pneumoniae): 0.125 µg/mL (≈ 0.347 µM) | half-life [1]: 8.2 h | MIC (Klebsiella oxytoca): 0.06 to 32 µg/mL (≈ 0.166 to 88.8 µM) | MIC50 (Klebsiella oxytoca): 1 µg/mL (≈ 2.77 µM) | MIC90 (Klebsiella oxytoca): 8 µg/mL (≈ 22.2 µM) | MIC (Pseudomonas aeruginosa [2]): 1 µg/mL (≈ 2.77 µM) | Ratio (Escherichia coli [3]): 512 | fraction unbound at 4 h, 10 µM [4]: 0.68 | Vd [5]: 24.1 L/kg | AUC/dose [6]: 0.31 µM·h/mg/kg | bioavailability [7]: 15% | EC50 (HepG2): 82 µM | Tmax [8]: 0.5 h | MIC (Escherichia coli [9]): ≤ 0.03 µg/mL | microsomal CLint at 1 µM [10]: 40 µL/min/mg | IC50 (DNA gyrase): 1.25 µM | MIC (Pseudomonas aeruginosa [11]): 0.5 µg/mL (≈ 1.39 µM) | clearance [12]: 50 mL/min/kg | half-life [13]: 1.7 h | IC50 [14]: 114 µM | IC50 [15]: 0.81 µM | Activity (Escherichia coli [16]): 45.5 mg/kg/day | Cmax/dose [17]: 0.01 µM/mg/kg | MIC (Escherichia coli [18]): 0.06 to 8 µg/mL (≈ 0.166 to 22.2 µM) | MIC50 (Escherichia coli [18]): 1 µg/mL (≈ 2.77 µM) | MIC90 (Escherichia coli [18]): 2 µg/mL (≈ 5.55 µM) | Tmax [19]: 1.3 h | MIC (Escherichia coli [20]): 0.06 µg/mL (≈ 0.166 µM) | Cmax/dose [21]: 0.1 µM/mg/kg | MIC (Escherichia coli [22]): 32 µg/mL (≈ 88.8 µM) | MIC (Morganella morganii): 0.06 to 32 µg/mL (≈ 0.166 to 88.8 µM) | MIC50 (Morganella morganii): 1 µg/mL (≈ 2.77 µM) | MIC90 (Morganella morganii): 8 µg/mL (≈ 22.2 µM) | IC50 at 110 min [23]: 1000 µM | selectivity ratio [24]: 621 | MIC (Proteus mirabilis): 0.06 to 32 µg/mL (≈ 0.166 to 88.8 µM) | MIC50 (Proteus mirabilis): 1 µg/mL (≈ 2.77 µM) | MIC90 (Proteus mirabilis): 8 µg/mL (≈ 22.2 µM) | solubility at 24 h [25]: 1280 µg/mL (≈ 3540 µM) | pKa [26]: 7.6 to 8 | MIC (Escherichia coli [27]): 0.06 µg/mL (≈ 0.166 µM) | MIC (Pseudomonas aeruginosa [28]): 1 to 32 µg/mL (≈ 2.77 to 88.8 µM) | MIC50 (Pseudomonas aeruginosa [28]): 8 µg/mL (≈ 22.2 µM) | MIC90 (Pseudomonas aeruginosa [28]): 32 µg/mL (≈ 88.8 µM) | EC50 (MOLT-4): 29 µM | Vd [29]: 5.1 L/kg | efflux ratio at 2 h, 10 µM [30]: 1.8 | EC50 (K562): 40 µM
